Here are results for seven compounds from patent US8916570B2 (The United States of America, as represented by the …, priority 2008, dated 2014).

Test [1] has as its target T1, mouse A1 adenosine receptor (Mus musculus, UniProt Q60612).
T1 sequence (Q60612 1-326): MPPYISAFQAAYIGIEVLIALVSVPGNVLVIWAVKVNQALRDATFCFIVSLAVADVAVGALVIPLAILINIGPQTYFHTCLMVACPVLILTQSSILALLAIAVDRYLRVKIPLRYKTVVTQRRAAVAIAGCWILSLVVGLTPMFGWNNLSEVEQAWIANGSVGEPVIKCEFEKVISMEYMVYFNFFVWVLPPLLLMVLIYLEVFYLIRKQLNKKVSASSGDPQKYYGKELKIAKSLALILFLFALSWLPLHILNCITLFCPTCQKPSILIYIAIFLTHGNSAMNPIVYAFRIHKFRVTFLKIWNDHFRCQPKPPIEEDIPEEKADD
Nature of the test: Competition radioligand binding, mouse A1 AR, HEK293 membranes (Table 1). The conditions noted are these: read-out: A1 Ki; species M (mouse); [125I]I-AB-MECA; mean ± SEM.

Test [2] deals with T2, rat A3 AR (Rattus norvegicus, UniProt P28647).
T2 sequence (P28647 1-320): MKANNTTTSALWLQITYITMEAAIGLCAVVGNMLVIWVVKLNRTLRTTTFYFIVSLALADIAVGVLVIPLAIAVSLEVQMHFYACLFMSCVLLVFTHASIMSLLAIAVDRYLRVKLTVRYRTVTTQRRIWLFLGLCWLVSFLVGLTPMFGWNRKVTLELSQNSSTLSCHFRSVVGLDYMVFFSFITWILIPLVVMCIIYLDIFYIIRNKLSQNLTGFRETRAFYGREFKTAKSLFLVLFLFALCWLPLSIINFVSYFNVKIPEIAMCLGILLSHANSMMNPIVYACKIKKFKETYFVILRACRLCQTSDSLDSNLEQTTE
Nature of the test: Radioligand binding, rat A3 AR (Table 1). The conditions noted are these: species R (rat).

Test [3] has as its target T3, human A1 adenosine receptor (Homo sapiens, UniProt P30542).
T3 sequence (P30542 1-326): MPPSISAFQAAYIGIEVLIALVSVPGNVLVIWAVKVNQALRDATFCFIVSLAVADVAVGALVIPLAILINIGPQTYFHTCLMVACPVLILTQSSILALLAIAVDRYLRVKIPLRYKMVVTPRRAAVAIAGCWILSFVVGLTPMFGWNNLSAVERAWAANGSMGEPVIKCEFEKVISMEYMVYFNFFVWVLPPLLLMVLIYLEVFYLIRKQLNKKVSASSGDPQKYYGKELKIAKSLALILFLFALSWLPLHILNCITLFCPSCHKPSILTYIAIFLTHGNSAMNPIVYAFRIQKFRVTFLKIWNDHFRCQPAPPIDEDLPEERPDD
On the set-up: expressed in transfected cells; host or cells: CHO. The settings on record: species H (human); data from Tchilibon et al. or Kim et al.; cited from earlier work.

Test [4] concerns the target T4, mouse A3 adenosine receptor (Mus musculus, UniProt Q61618).
T4 sequence (Q61618 1-319): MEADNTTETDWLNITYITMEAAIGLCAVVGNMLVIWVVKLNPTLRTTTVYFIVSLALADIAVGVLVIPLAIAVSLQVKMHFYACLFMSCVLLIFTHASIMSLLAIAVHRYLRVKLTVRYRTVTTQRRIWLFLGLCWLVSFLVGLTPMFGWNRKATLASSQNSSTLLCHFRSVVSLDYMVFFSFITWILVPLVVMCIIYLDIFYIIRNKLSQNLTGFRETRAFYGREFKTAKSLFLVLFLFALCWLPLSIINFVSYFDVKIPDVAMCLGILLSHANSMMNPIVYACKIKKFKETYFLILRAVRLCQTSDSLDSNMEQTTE
Nature of the test: Competition radioligand binding, mouse A3 AR, HEK293 membranes (Table 1). The settings on record: for Selectivity A1/A3: mouse; for Ki: read-out: A3 Ki, species M (mouse), [125I]I-AB-MECA.

The target in test [5] is mouse A2A adenosine receptor (Mus musculus, UniProt Q60613). Nature of the test: Competition radioligand binding, mouse A2A AR, HEK293 membranes (Table 1). The conditions noted are these: read-out: A2A Ki; species M (mouse); [3H]CGS21680.
For test [6], the target named is T5, human A2A adenosine receptor (Homo sapiens, UniProt P29274). On the set-up: expressed in transfected cells. The conditions noted are these: species H (human); data from Tchilibon et al. or Kim et al.; cited from earlier work.
Test [7] addresses T6, human A3 adenosine receptor (Homo sapiens, UniProt P0DMS8).
T6 sequence (P0DMS8 1-318): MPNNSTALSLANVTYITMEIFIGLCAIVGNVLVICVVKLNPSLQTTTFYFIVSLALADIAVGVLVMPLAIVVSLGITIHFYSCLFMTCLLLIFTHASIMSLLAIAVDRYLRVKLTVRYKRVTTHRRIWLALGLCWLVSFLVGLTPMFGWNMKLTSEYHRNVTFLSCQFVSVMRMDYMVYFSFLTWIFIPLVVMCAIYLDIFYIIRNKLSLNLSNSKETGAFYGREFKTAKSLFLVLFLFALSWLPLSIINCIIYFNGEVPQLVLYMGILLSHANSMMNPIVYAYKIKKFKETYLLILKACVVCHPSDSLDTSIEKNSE
Nature of the test: [125I]I-AB-MECA binding, human A3 AR, CHO membranes (Table 1).

In a further test the target is T7, hA2AAR (Homo sapiens, UniProt P29274).
T7 construct: expressed in transfected cells
The settings on record: values from the literature (footnotes c, d); read-out: Affinity (Ki, nM) hA2A; cited from earlier work.

A further test has as its target T8, human A3AR (Homo sapiens, UniProt P0DMS8).
T8 construct: expressed in transfected cells; host or cells: CHO
T8 sequence (P0DMS8 1-318): T6 sequence (P0DMS8 1-318)
Nature of the test: Inhibition of forskolin-stimulated cyclic AMP production in AR transfected CHO cells (Table 1). In kind it is cell-based. The settings on record: at 10 μM, in comparison to maximal effect of full agonist 5′-N-ethylcarboxamidoadenosine at 100%.

The target in test [8] is T5, human A2A adenosine receptor. Kind of test: Radioligand binding, human A2A AR (Table 1). The conditions noted are these: read-out: A2A Ki; species H (human).
Test [9] concerns the target T9, hA3AR (Homo sapiens, UniProt P0DMS8).
T9 construct: expressed in transfected cells; host or cells: CHO
T9 sequence (P0DMS8 1-318): T6 sequence (P0DMS8 1-318)
The conditions noted are these: values from the literature (footnotes c, d); read-out: Affinity (Ki, nM) hA3; cited from earlier work.

For test [10], the target named is T3, human A1 adenosine receptor. Kind of test: Radioligand binding, human A1 AR, CHO membranes (Table 1). The conditions noted are these: read-out: A1 Ki; species H (human).
Test [11] has as its target T9, hA3AR. The settings on record: at 10 μM vs maximal effect of 51 (= 100%); values from the literature; cited from earlier work.
A further test addresses T10, hA1AR (Homo sapiens, UniProt P30542).
T10 construct: expressed in transfected cells; host or cells: CHO
T10 sequence (P30542 1-326): T3 sequence (P30542 1-326)
The conditions noted are these: values from the literature (footnotes c, d); read-out: Affinity (Ki, nM) hA1; cited from earlier work.

A further test addresses T11, human A1 receptors (Homo sapiens, UniProt P30542).
T11 construct: expressed in transfected cells; host or cells: CHO
T11 sequence (P30542 1-326): T3 sequence (P30542 1-326)
Nature of the test: Binding at human A1 receptor, CHO membranes (Example 4). The conditions noted are these: read-out: Affinity (Ki nM) A1.

The target in test [12] is T6, human A3 adenosine receptor. Also on record: expressed in transfected cells; host or cells: CHO. The settings on record: species H (human); data from Tchilibon et al. or Kim et al.; cited from earlier work.
Test [13] concerns the target T2, rat A3 AR. The conditions noted are these: species R (rat); data from Tchilibon et al. / Lee et al.; cited from earlier work.
A further test has as its target T12, human A2A receptors (Homo sapiens, UniProt P29274).
T12 construct: expressed in transfected cells
Nature of the test: Binding at human A2A receptor, HEK-293 membranes (Example 4). The conditions noted are these: read-out: Affinity (Ki nM) A2A.

Another test addresses T13, human A3 receptor (Homo sapiens, UniProt P0DMS8).
T13 sequence (P0DMS8 1-318): T6 sequence (P0DMS8 1-318)
Nature of the test: Binding assay at the human A3 receptor, CHO membranes (Example 4).

Another test concerns the target T14, mA2AAR (Mus musculus, UniProt Q60613).
T14 construct: expressed in transfected cells
The settings on record: values from Melman et al.; read-out: Affinity (Ki, nM) mA2A; cited from earlier work.

The target in another test is T15, mA3AR (Mus musculus, UniProt Q61618).
T15 construct: expressed in transfected cells
T15 sequence (Q61618 1-319): T4 sequence (Q61618 1-319)
The settings on record: values from Melman et al.; read-out: Affinity (Ki, nM) mA3; cited from earlier work.

The target of another test is T16, mA1AR (Mus musculus, UniProt Q60612).
T16 construct: expressed in transfected cells
T16 sequence (Q60612 1-326): T1 sequence (Q60612 1-326)
The conditions noted are these: values from Melman et al.; read-out: Affinity (Ki, nM) mA1; cited from earlier work.

The target in a further test is T17, rat A1 AR (Rattus norvegicus, UniProt P25099).
T17 sequence (P25099 1-326): T1 sequence (Q60612 1-326) with E151V, A155D, I157R, E316D, I319L, D325E
The conditions noted are these: species R (rat); data from Lee et al.; cited from earlier work.

A further test concerns the target rat A2A AR (Rattus norvegicus, UniProt P30543). The conditions noted are these: species R (rat); data from Lee et al.; cited from earlier work.

Numbering of substitutions follows the chain as printed. Read-outs that look alike come from different tables or passages of the source. Marks after values point to notes of the source that are not given here.

mouse A2A adenosine receptor, sequence (Q60613 whole entry): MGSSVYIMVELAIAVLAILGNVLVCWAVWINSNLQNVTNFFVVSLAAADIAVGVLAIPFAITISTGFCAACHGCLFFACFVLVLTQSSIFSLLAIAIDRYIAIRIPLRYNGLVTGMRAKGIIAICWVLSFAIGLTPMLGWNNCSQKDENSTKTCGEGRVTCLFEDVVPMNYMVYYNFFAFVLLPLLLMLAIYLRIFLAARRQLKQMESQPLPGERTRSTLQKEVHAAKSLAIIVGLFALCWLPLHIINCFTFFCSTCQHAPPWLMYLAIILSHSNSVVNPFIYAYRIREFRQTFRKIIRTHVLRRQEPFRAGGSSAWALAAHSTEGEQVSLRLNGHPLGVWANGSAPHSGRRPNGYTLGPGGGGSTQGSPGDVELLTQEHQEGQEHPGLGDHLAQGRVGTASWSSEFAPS
T5 sequence (P29274 whole entry): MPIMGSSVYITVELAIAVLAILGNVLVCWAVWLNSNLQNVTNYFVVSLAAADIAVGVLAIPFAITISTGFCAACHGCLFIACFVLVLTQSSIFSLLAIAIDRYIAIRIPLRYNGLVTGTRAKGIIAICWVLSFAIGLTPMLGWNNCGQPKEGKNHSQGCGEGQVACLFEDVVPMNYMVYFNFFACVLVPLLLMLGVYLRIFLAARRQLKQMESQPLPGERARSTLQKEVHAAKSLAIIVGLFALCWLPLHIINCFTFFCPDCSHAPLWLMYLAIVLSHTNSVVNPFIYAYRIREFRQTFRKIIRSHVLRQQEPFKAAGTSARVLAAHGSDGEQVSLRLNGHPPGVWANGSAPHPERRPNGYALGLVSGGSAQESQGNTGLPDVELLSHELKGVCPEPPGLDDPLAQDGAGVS
T7 sequence (P29274 whole entry): as above
T12 sequence (P29274 whole entry): as above
T14 sequence (Q60613 whole entry): as the sequence (Q60613 whole entry) above
rat A2A AR, sequence (P30543 whole entry): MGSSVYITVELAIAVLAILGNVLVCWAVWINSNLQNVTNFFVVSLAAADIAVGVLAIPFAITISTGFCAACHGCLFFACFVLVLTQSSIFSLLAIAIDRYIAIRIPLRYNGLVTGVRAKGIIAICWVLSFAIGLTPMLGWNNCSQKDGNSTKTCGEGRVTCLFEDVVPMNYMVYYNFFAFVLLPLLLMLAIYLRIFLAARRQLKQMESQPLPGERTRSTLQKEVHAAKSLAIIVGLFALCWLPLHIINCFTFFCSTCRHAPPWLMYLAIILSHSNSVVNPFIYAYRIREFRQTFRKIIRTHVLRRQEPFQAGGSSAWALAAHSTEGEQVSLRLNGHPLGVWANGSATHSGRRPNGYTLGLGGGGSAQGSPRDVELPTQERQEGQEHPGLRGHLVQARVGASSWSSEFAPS
Excerpt for human A1 receptors: (§1) The reaction was terminated by filtration with GF/B filters.
Excerpt for human A2A receptors: as §1
Description for human A3 receptor: Cell culture and membrane preparation: CHO (Chinese hamster ovary) cells expressing the recombinant human A3AR were cultured in DMEM (Dulbecco's modified Eagle's medium) supplemented with 10% fetal bovine serum, 100 units/mL penicillin, 100 μg/mL streptomycin, 2 μmol/mL glutamine and 800 μg/mL geneticin. The CHO cells expressing rat A3ARs were cultured in DMEM and F12 (1:1). Cells were harvested by trypsinization. After homogenization and suspension, cell membranes were centrifuged at 500 g for 10 min, and the pellet was re-suspended in 50 mM Tris.HCl buffer (pH 8.0) containing 10 mM MgCl2, 1 mM EDTA and 0.1 mg/mL CHAPS (3[(3-cholamidopropyl)dimethylammonio]-propanesulfonic acid). […] The protein concentration was measured using the Bradford assay.
The mixtures were incubated at 37° C. for 60 min. Binding reactions were terminated by filtration through Whatman GF/B filters under reduced pressure using a MT-24 cell harvester (Brandell, Gaithersburgh, Md., USA). Filters were washed three times with 9 mL ice-cold buffer. Radioactivity was determined in a Beckman 5500B γ-counter.

In the case of `CNC(=O)[C@@]12C[C@@H]1[C@@H](n1cnc3c(NCc4cccc(Br)c4)nc(Cl)nc31)[C@H](O)[C@@H]2O` [Compound 14], the inhibitory constant (Ki) in [1] was 8.79 ± 0.12 nM; at rat A3 AR [2], 0.76 nM; in test [3], 270 nM; in test [4], 0.9 ± 0.22 nM; in test [5], 6390 ± 870 nM; in test [6], 1300 nM. For the same compound, in [4], the “Selectivity A1/A3” value came out at 9.8.

Consider `CNC(=O)[C@@]12C[C@@H]1[C@@H](n1cnc3c(NCc4cccc(I)c4)ncnc31)[C@H](O)[C@@H]2O` [Compound 31], for which the “Selectivity A1/A3” value in test [7] (human) is recorded as “up to 1900”. For the same compound, the Ki is 2.4 ± 0.5 nM in test [7] (read-out: A3 Ki, species H (human)); 6200 ± 100 nM at hA2AAR; 6200 ± 100 nM in [8]; 2.4 ± 0.5 nM on hA3AR [9]; 700 ± 270 nM in test [10]; 700 ± 270 nM on hA1AR. The “% Efficacy at the human A3 AR” value on human A3AR is listed as 100^j %. Besides, the “% Efficacy hA3” value on hA3AR [11] was 100%.

As to `COc1ccc(OC)c(CNc2nc(Cl)nc3c2ncn3C2C(O)C(O)C3CC32)c1` (stereo not drawn) [Compound 111b, (1′R,2′R,3′S, 4′R,5′S)-4′-[2-Chloro-6-(2,5-dimethoxybenzylamino)purine]-2′,3′-O-dihydroxybicyclo-[3.1.0]hexane], the Ki on human A1 receptors amounted to 3000 nM.

Turning to `CNC(=O)[C@@]12C[C@@H]1[C@@H](n1cnc3c(NCc4cc(OC)ccc4OC)nc(Cl)nc31)[C@H](O)[C@@H]2O` [Compound 17], the Ki in test [1] was 29 ± 3.3 nM; in test [12] it was 1.4 nM; at rat A3 AR [13] it was 0.87 nM; in test [3], 1600 nM; in test [4], 1.72 ± 0.04 nM; in test [5], 44700 ± 5700 nM. In [6], the Ki was 10000 nM. For the same compound, the “Selectivity A1/A3” value in [4] stood at 17.

As for `OC1C(O)C(n2cnc3c(NCc4cccc(Br)c4)nc(Cl)nc32)C2CC12` (stereo not drawn) [Compound 109b, (1′R,2′R,3′S, 4′R,5′S)-4′42-Chloro-6-(3-bromobenzylamino)purine-1-2′,3′-O-dihydroxybicyclo-[3.1.0]hexane], at human A2A receptors, the Ki stood at 1600 nM.

`OC1C(O)C(n2cnc3c(NC4CC4c4ccccc4)nc(Cl)nc32)C2CC12` (stereo not drawn) [Compound 113b, (1′R,2′R,3′S, 4′R,5′S)-4′-[2-Chloro-6-(trans-2-phenylcyclopropylamino)purine]-2′,3′-O-dihydroxybicyclo-[3.1.0]hexane]: the Ki was 2010 nM at human A2A receptors and 1790 nM on human A1 receptors. On human A3 receptor, the “binding to the A3AR (in words)” value is “nanomolar binding affinity”.

For the compound `CNC(=O)[C@@]12C[C@@H]1[C@@H](n1cnc3c(NCc4cccc(I)c4)nc(Cl)nc31)[C@H](O)[C@@H]2O` [Compound 15], the Ki in [1] was 7.32 ± 1.5 nM; on rat A3 AR [2] it was 1.1 nM; at hA2AAR it was 784 ± 97 nM; at mA2AAR it was 5350 nM; on mA3AR, 0.8 ± 0.14 nM; in test [8] it was 784 ± 97 nM. In addition, the Ki at mA1AR is 7.32 ± 1.5 nM; in test [4] it was 0.8 ± 0.14 nM; in test [5] it was 5350 ± 860 nM; at rat A1 AR, 83.9 nM; in test [10], 136 ± 22 nM; at rat A2A AR, 1660 nM. Further, the Ki at hA1AR was 136 ± 22 nM. In addition, the “% Efficacy hA3” value on hA3AR [11] is reported as 100%.

By Ki is commonly meant a measure of affinity in units of concentration, obtained from inhibition or displacement.
